Measured values published in PMC6913630, “Novel benzofuran-based sulphonamides as selective carbonic anhydrases IX and XII inhibitors: synthesis and in vitro biological evaluation” (Journal of Enzyme Inhibition and Medicinal Chemistry, 2019).

How the values were obtained:
Experiment in all cases: stopped-flow CO2 hydration
Assay type in all cases: biochemical
hCA XII = molecular target: T1, hCA XII (Homo sapiens, UniProt O43570)
T1 construct: gene CA12; not described; transmembrane tumour-associated isoform
Source text: stopped-flow CO2 hydration on hCA XII

hCA II = molecular target: T2, hCA II (Homo sapiens, UniProt P00918)
T2 construct: gene CA2; not described; cytosolic isoform
Source text: stopped-flow CO2 hydration on hCA II

hCA IX = molecular target: T3, hCA IX (Homo sapiens, UniProt Q16790)
T3 construct: gene CA9; not described; transmembrane tumour-associated isoform
Source text: stopped-flow CO2 hydration on hCA IX

hCA I = molecular target: T4, hCA I (Homo sapiens, UniProt P00915)
T4 construct: gene CA1; not described; cytosolic isoform
Source text: stopped-flow CO2 hydration on hCA I

T4 sequence (P00915 2-261): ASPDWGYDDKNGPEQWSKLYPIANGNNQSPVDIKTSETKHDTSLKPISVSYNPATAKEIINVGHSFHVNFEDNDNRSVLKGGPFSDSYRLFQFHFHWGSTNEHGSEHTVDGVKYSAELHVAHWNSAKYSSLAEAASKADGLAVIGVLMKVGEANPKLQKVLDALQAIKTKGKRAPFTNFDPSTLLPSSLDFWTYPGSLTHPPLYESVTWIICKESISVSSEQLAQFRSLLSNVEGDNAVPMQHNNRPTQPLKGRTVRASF
T1 sequence (O43570 25-354): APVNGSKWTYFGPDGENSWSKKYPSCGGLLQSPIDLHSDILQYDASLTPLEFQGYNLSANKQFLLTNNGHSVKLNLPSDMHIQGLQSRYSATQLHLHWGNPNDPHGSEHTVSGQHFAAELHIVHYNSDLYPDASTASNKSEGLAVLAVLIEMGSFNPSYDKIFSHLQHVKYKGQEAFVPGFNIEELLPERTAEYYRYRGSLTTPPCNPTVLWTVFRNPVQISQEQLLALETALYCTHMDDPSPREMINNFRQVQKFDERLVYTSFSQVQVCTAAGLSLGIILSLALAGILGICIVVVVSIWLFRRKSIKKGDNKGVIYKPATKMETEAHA

Ki (hCA XII) [nM]	Ki (hCA II) [nM]	Ki (hCA IX) [nM]	Ki (hCA I) [nM]	SMILES
27.5	727	97.5	828	Cc1ccc(S(=O)(=O)CC(=NNC(=O)c2ccc(S(N)(=O)=O)cc2)c2cc3cc(Br)ccc3o2)cc1 [10d, 4–(2-(1–(5-Bromobenzofuran-2-yl)-2-tosylethylidene)hydrazine-1-carbonyl)benzenesulfonamide]
16.7	571	10	2500	Cc1ccc(S(=O)(=O)CC(=NNc2ccc(S(N)(=O)=O)cc2)c2cc3cc(Br)ccc3o2)cc1 [9c, 4–(2-(1–(5-Bromobenzofuran-2-yl)-2-tosylethylidene)hydrazineyl)benzenesulfonamide]
66.8	439	85.4	1820	NS(=O)(=O)c1ccc(C(=O)NN=C(CS(=O)(=O)c2ccccc2)c2cc3cc(Br)ccc3o2)cc1 [10c, 4–(2-(1–(5-Bromobenzofuran-2-yl)-2-(phenylsulfonyl)ethylidene)hydrazine-1-carbonyl)benzenesulfonamide]
10.1	33.6	60.4	37.4	CC(=NNC(=O)c1ccc(S(N)(=O)=O)cc1)c1cc2ccccc2o1 [5a, 4–(2-(1-(Benzofuran-2-yl)ethylidene)hydrazine-1-carbonyl)benzenesulfonamide]
33.4	888	44.6	2160	NS(=O)(=O)c1ccc(NN=C(CS(=O)(=O)c2ccccc2)c2cc3cc(Br)ccc3o2)cc1 [9b, 4–(2-(1–(5-Bromobenzofuran-2-yl)-2-(phenylsulfonyl)ethylidene)hydrazineyl)benzenesulfonamide]
71.8	354	76.6	4620	NS(=O)(=O)c1ccc(C(=O)NN=C(CS(=O)(=O)c2ccccc2)c2cc3ccccc3o2)cc1 [10a, 4–(2-(1-(Benzofuran-2-yl)-2-(phenylsulfonyl)ethylidene)hydrazine-1-carbonyl)benzenesulfonamide]
49.7	644	32.8	1290	Cc1ccc(S(=O)(=O)CC(=NNc2ccc(S(N)(=O)=O)cc2)c2cc3ccccc3o2)cc1 [9a, 4–(2-(1-(Benzofuran-2-yl)-2-tosylethylidene)hydrazineyl)benzenesulfonamide]
38.8	73.5	48.4	92.7	CC(=NNc1ccc(S(N)(=O)=O)cc1)c1cc2cc(Br)ccc2o1 [4b, 4–(2-(1–(5-Bromobenzofuran-2-yl)ethylidene)hydrazineyl)benzenesulfonamide]
32.5	44.2	27.7	63.9	CC(=NNC(=O)c1ccc(S(N)(=O)=O)cc1)c1cc2cc(Br)ccc2o1 [5b, 4–(2-(1–(5-Bromobenzofuran-2-yl)ethylidene)hydrazine-1-carbonyl)benzenesulfonamide]
26.9	12.3	33.3	163	CC(=NNc1ccc(S(N)(=O)=O)cc1)c1cc2ccccc2o1 [4a, 4–(2-(1-(Benzofuran-2-yl)ethylidene)hydrazineyl)benzenesulfonamide]
38.9	229	51.1	3920	Cc1ccc(S(=O)(=O)CC(=NNC(=O)c2ccc(S(N)(=O)=O)cc2)c2cc3ccccc3o2)cc1 [10b, 4–(2-(1-(Benzofuran-2-yl)-2-tosylethylidene)hydrazine-1-carbonyl)benzenesulfonamide]
